Measurements as given in patent US7586022B2, “Transgenic non-human animal model of lung tumorigenesis” (Trustees of Dartmouth College, priority 2006, dated 2009).
“Also recorded” adds a separate entry of the source.

Experiments:
exogenous cyclin E = exogenous cyclin E expression in retrovirally transduced BEAS-2B cells treated with agents; type: cell-based, human; settings: treated for 24, 36 and 48 hours
Description: To determine whether other agents could modulate the expression of cyclin E, […], N-(4-hydroxyphenyl)retinamide (4HPR or fenretinide), or other non-classical retinoids for 24, 36 and 48 hours.

[1] = system: BEAS-2B human bronchial epithelial cells; settings: cited from earlier work

CC1(C)CC[C@]2(C(=O)O)CC[C@]3(C)[C@H](C(=O)C=C4[C@@]5(C)C=C(C#N)C(=O)C(C)(C)[C@@H]5CC[C@]43C)[C@@H]2C1 [CDDO, 2-cyano-3,12-dioxooleana-1,9-dien-28-oic acid]
exogenous cyclin E expression (exogenous cyclin E): potently repress exogenous cyclin E expression; also recorded: most potently decreased exogenous cyclin E expression, as early as 24 hours after treatment

CC1=C(/C=C/C(C)=C/C=C/C(C)=C/C(=O)O)C(C)(C)CCC1 [RA, All-trans-retinoic acid]
NNK-mediated transformation ([1]; BEAS-2B cells exposed to NNK): antagonizes NNK-mediated transformation by causing G1 arrest
cyclin E expression ([1]; RA treatment): represses cyclin E expression via activation of a proteosomal degradation pathway
